Like-named read-outs stand apart in the source and are kept apart here.
Test system: wild‐type BCG cells
Format: cell-based, M. bovis BCG
Conditions: for Mean_Ratio (GDI5755_3d vs DMSO_3d): down-regulated, 3 d; for Mean Ratio: GDI5755_2d vs DMSO_2d; for Mean Ratio / Mean Ratio (GDI5755_2d vs DMSO_2d): up-regulated; for Mean Ratio (GDI5755_2d vs DMSO_2d): 2d

## O=C(Oc1ccc(Cl)cc1)c1ccc(N2CCOCC2)c([N+](=O)[O-])c1 [GDI‐5755]
Protein A0A0H3M2P5, BCG_0207 (Rv0170), MCE-family protein mce1B
  Mean_Ratio (GDI5755_3d vs DMSO_3d): 0.7
Protein A0A0H3M2Q0 Probable conserved mce associated membrane protein
  Mean Ratio: 1.29
Protein A0A0H3M2Q5 Probable conserved transmembrane protein
  Mean Ratio: 1.31
Protein A0A0H3M2T8 Possible conserved membrane protein mmpS5
  Mean Ratio (GDI5755_2d vs DMSO_2d): 1.38
Protein A0A0H3M3A7 3-hydroxyacyl-CoA dehydrogenase
  Mean Ratio: 1.27
Protein A0A0H3M3B6, BCG_1227 (Rv1165), Large ribosomal subunit assembly factor BipA
  Mean_Ratio (GDI5755_3d vs DMSO_3d): 0.749
Protein A0A0H3M3D2, BCG_0932 (Rv0880), Possible transcriptional regulatory protein (Possibly marR-family)
  Mean_Ratio (GDI5755_3d vs DMSO_3d): 0.738
Protein A0A0H3M3H3, BCG_1314 (Rv1254), Probable acyltransferase
  Mean_Ratio (GDI5755_3d vs DMSO_3d): 0.748
Protein A0A0H3M3I2 Uncharacterized protein
  Mean Ratio: 1.28
Protein A0A0H3M3J3 Probable periplasmic oligopeptide-binding lipoprotein oppA
  Mean Ratio: 1.27
Protein A0A0H3M3L0 Conserved hypothetical transmembrane protein
  Mean Ratio (GDI5755_2d vs DMSO_2d): 1.38
Protein A0A0H3M3S8 Lipoarabinomannan carrier protein LprG
  Mean Ratio: 1.31
Protein A0A0H3M3T4 Possible conserved membrane protein
  Mean Ratio: 1.31
Protein A0A0H3M3X9 Probable cation transporter P-type atpase D ctpD
  Mean Ratio: 1.31
Protein A0A0H3M4A0, BCG_1633 (Rv1595), L-aspartate oxidase
  Mean_Ratio (GDI5755_3d vs DMSO_3d): 0.7
Protein A0A0H3M4G0 Lipoprotein lprB
  Mean Ratio (GDI5755_2d vs DMSO_2d): 1.35
Protein A0A0H3M4I9, BCG_1379c (Rv1318c), Possible adenylate cyclase
  Mean_Ratio (GDI5755_3d vs DMSO_3d): 0.7
Protein A0A0H3M4L2, BCG_1760c (Rv1721c), Antitoxin VapB12
  Mean_Ratio (GDI5755_3d vs DMSO_3d): 0.7
Protein A0A0H3M4W6 DUF1490 family protein
  Mean Ratio: 1.26
Protein A0A0H3M5A9, BCG_1670c (Rv1632c), DUF402 domain-containing protein
  Mean_Ratio (GDI5755_3d vs DMSO_3d): 0.74
Protein A0A0H3M5C0 RNA polymerase sigma factor
  Mean Ratio (GDI5755_2d vs DMSO_2d): 1.33
Protein A0A0H3M5G5, BCG_1251, alternative RNA polymerase sigma factor sigI
  Mean_Ratio (GDI5755_3d vs DMSO_3d): 0.7
Protein A0A0H3M5I2 Uncharacterized protein
  Mean Ratio: 1.28
Protein A0A0H3M5J1 Probable serine protease htrA
  Mean Ratio: 1.26
Protein A0A0H3M5K5 DUF4129 domain-containing protein
  Mean Ratio (GDI5755_2d vs DMSO_2d): 1.38
Protein A0A0H3M5K7, BCG_1305c (Rv1245c), Probable short-chain type dehydrogenase/reductase
  Mean_Ratio (GDI5755_3d vs DMSO_3d): 0.7
Protein A0A0H3M5K8 Methylenetetrahydrofolate reductase
  Mean Ratio (GDI5755_2d vs DMSO_2d): 1.33
Protein A0A0H3M5L3, BCG_1311c (Rv1251c), Uncharacterized protein
  Mean_Ratio (GDI5755_3d vs DMSO_3d): 0.76
Protein A0A0H3M5L8 1-acylglycerol-3-phosphate O-acyltransferase
  Mean Ratio: 1.26
Protein A0A0H3M5V5 Possible flavoprotein
  Mean Ratio (GDI5755_2d vs DMSO_2d): 1.33
Protein A0A0H3M5V7 Possible transmembrane protein
  Mean Ratio (GDI5755_2d vs DMSO_2d): 1.32
Protein A0A0H3M5V9 DUF3145 domain-containing protein
  Mean Ratio: 1.32
Protein A0A0H3M6F8 Probable 'component linked with the assembly of cytochrome' transport transmembrane ATP-binding protein ABC transporter cydC
  Mean Ratio (GDI5755_2d vs DMSO_2d): 1.33
Protein A0A0H3M6P3, BCG_1740c (Rv1702c), HNH nuclease domain-containing protein
  Mean_Ratio (GDI5755_3d vs DMSO_3d): 0.759
Protein A0A0H3M6T8 Uncharacterized protein
  Mean Ratio: 1.25
Protein A0A0H3M7A1 Probable conserved membrane protein
  Mean Ratio (GDI5755_2d vs DMSO_2d): 1.33
Protein A0A0H3M7A2 (2E)-enoyl-[ACP] glycyltransferase
  Mean Ratio: 1.27
Protein A0A0H3M7D2 Quinone oxidoreductase
  Mean Ratio: 1.25
Protein A0A0H3M7E6, BCG_0206 (Rv0169), MCE-family protein mce1A
  Mean_Ratio (GDI5755_3d vs DMSO_3d): 0.7
Protein A0A0H3M7F0, BCG_0211 (Rv0174), MCE-family protein mce1F
  Mean_Ratio (GDI5755_3d vs DMSO_3d): 0.7
Protein A0A0H3M7F7 Hemerythrin-like domain-containing protein
  Mean Ratio (GDI5755_2d vs DMSO_2d): 1.39
Protein A0A0H3M7J3 UspA domain-containing protein
  Mean Ratio: 1.27
Protein A0A0H3M7L3 Succinate dehydrogenase [membrane anchor subunit]
  Mean Ratio: 1.25
Protein A0A0H3M7L4 Possible transmembrane protein dedA
  Mean Ratio: 1.29
Protein A0A0H3M7L9 Probable arsenic-transport integral membrane protein arsC
  Mean Ratio: 1.30
Protein A0A0H3M7M0 Posible transcriptional regulatory protein
  Mean Ratio: 1.27
Protein A0A0H3M7M6, BCG_2876 (Rv2856), Nickel/cobalt efflux system
  Mean_Ratio (GDI5755_3d vs DMSO_3d): 0.7
Protein A0A0H3M7N4 Possible secreted protease
  Mean Ratio: 1.32
Protein A0A0H3M7R0, BCG_0355, Possible beta-1,3-glucanase
  Mean_Ratio (GDI5755_3d vs DMSO_3d): 0.7
Protein A0A0H3M7R4 Probable membrane protein
  Mean Ratio: 1.30
Protein A0A0H3M7T2, BCG_2131, Uncharacterized protein
  Mean_Ratio (GDI5755_3d vs DMSO_3d): 0.742
Protein A0A0H3M7W0, BCG_2977 (Rv2956), Methyltransferase FkbM domain-containing protein
  Mean_Ratio (GDI5755_3d vs DMSO_3d): 0.7
Protein A0A0H3M7X0 Probable conserved transmembrane protein
  Mean Ratio: 1.28
Protein A0A0H3M7X3 Probable conserved transmembrane protein
  Mean Ratio: 1.32
Protein A0A0H3M7Y1, BCG_0442 (Rv0404), Probable fatty-acid-CoA ligase fadD30
  Mean_Ratio (GDI5755_3d vs DMSO_3d): 0.7
Protein A0A0H3M7Y6, BCG_2210 (Rv2194), Cytochrome bc1 complex cytochrome c subunit, qcrC
  Mean_Ratio (GDI5755_3d vs DMSO_3d): 0.747
Protein A0A0H3M8J5 Protein translocase subunit SecE
  Mean Ratio: 1.31
Protein A0A0H3M8K7 DUF4333 domain-containing protein
  Mean Ratio (GDI5755_2d vs DMSO_2d): 1.33
Protein A0A0H3M8L8 Probable FeIII-dicitrate-binding periplasmic lipoprotein fecB
  Mean Ratio: 1.27
Protein A0A0H3M8M0 Conserved hypothetical threonine rich protein
  Mean Ratio: 1.26
Protein A0A0H3M8Q9 Probable short-chain type dehydrogenase/reductase
  Mean Ratio: 1.27
Protein A0A0H3M8T3, BCG_3410 (Rv3340), Probable O-acetylhomoserine sulfhydrylase metC
  Mean_Ratio (GDI5755_3d vs DMSO_3d): 0.7
Protein A0A0H3M8V5 Possible transcriptional regulatory protein (Probably tetR-family)
  Mean Ratio: 1.29
Protein A0A0H3M8X7, BCG_3431 (Rv3359), Possible oxidoreductase
  Mean_Ratio (GDI5755_3d vs DMSO_3d): 0.737
Protein A0A0H3M8X9 Probable oxidase
  Mean Ratio (GDI5755_2d vs DMSO_2d): 1.33
Protein A0A0H3M8Y4, BCG_3436c (Rv3364c), Roadblock/LAMTOR2 domain-containing protein/Serine protease inhibitor
  Mean_Ratio (GDI5755_3d vs DMSO_3d): 0.75
